From patent US3981814A, “Bacteriostatic substituted benzanilide compositions and methods for their use” (Givaudan Corporation, priority 1975, dated 1976)
Values after ≈ are worked out from the molar mass of the structure shown.

Legend:
[1] = Solubility in alcohol and other solvents; format: physicochemical
Staphylococcus aureus = test: In vitro soap bacteriostatic test (agar dilution, spot inoculation, 35°, 48 hours); format: cell-based; conditions: for MIC: Staphylococcus aureus, without soap, read-out: Compound Activity Without Soap: minimum concentration where S. aureus growth is completely inhibited; for Compound Activity With Soap: minimum concentration where S. aureus growth is completely inhibited: ratio of soap to compound 100:1
Experimental: The antibacterial properties of the compounds prepared in Examples 1 - 14 were tested in soap. The in vitro soap bacteriostatic tests were conducted as follows: The compound is dissolved in a suitable solvent, usually dimethylformamide, to give a 6% solution. One-half ml. aliquot was added to 100 ml. of 3% solution of bar soap stock solution. The solid soap used was a neutral white toilet soap of the "LUX" type. The fatty acids in this soap were of the following composition: This yields an aqueous soap solution containing 30,000 mcg./ml. soap and 300 mcg./ml. compound. The soap/compound ratio in the latter is 100/l. A two-fold serial dilution series is prepared with this solution using sterile distilled water in test tubes such that the final volume in each tube is 2.0 ml. To each test tube is added 28 ml. of molten Dextrose Trypticase Extract Agar (B.B.L.). The tube contents were poured into sterile Petri plates and allowed to harden. The highest final concentration of compound in the serial dilution series is 20 mcg./ml. Plates were spot inoculated with a broth culture of Staphylococcus aureus and incubated at 35° for 48 hours. The lowest concentration completely inhibiting growth of the test organism, in mcg./ml. is recorded as the bacteriostatic concentration of the compound. Tests in the absence of soap are made in a similar manner except that all dilutions are made in solvent. The final concentration in the agar should not be greater than 5%. The results of these tests with the compounds of the present invention as compared with compounds having chemical structures closely related to the compounds of the present invention (designated by the symbol "C") are set forth in the Table. Column 1 contains the data as to the activity of the test solution without soap; column 2 refers to tests in which the ratio of soap to compound is 100:1. […] Growth is observed at the next lower concentration.

in vivo = conditions: rat, determined in rats, oral toxicity
Description: For example, 4-chloro-3', 5'-di(trifluoromethyl)-benzanilide has an LD50 of […], determined in rats.

| Structure (SMILES) | solubility in alcohol solvents [1] | MIC (Staphylococcus aureus) | Compound Activity With Soap: minimum concentration where S. aureus growth is completely inhibited (Staphylococcus aureus) | LD50 (in vivo) |
| --- | --- | --- | --- | --- |
| O=C(Nc1cc(C(F)(F)F)cc(C(F)(F)F)c1)c1ccc(Br)cc1 [Compound 20, 4-bromo-α,α,α,α',α',α' -hexafluorobenzo-3',5'-xylidide] | soluble or fairly soluble | 0.312 µg/mL (≈ 0.757 µM) | 0.312 µg/mL | – |
| O=C(Nc1cc(C(F)(F)F)cc(C(F)(F)F)c1)c1ccc(Cl)cc1 [Compound 19, 4-chloro-3',5'-di(trifluoromethyl)-benzanilide] | soluble or fairly soluble | 0.625 µg/mL (≈ 1.7 µM) | 0.312 µg/mL | 6000 mg/kg |
| O=C(Nc1ccc(Br)c(C(F)(F)F)c1)c1ccc(Cl)cc1 [Compound 15, 4'-bromo-4-chloro-α,α,α-trifluoro-m-benzotoluidide] | – | 0.625 µg/mL (≈ 1.65 µM) | 0.625 µg/mL | – |
| O=C(Nc1cccc(C(F)(F)F)c1)c1ccc(Cl)cc1 [Compound 1, 4-Chloro-3'-(trifluoromethyl) benzanilide] | – | 10 µg/mL (≈ 33.4 µM) | 0.625 µg/mL | – |
| O=C(Nc1ccc(Cl)c(C(F)(F)F)c1)c1ccc(Br)cc1 [Compound 10, 4-bromo-4'-chloro-α,α,α-trifluoro-m-benzotoluidide] | – | 0.625 µg/mL (≈ 1.65 µM) | 0.312 µg/mL | – |
| O=C(Nc1ccc(Cl)c(C(F)(F)F)c1)c1ccc(Cl)cc1 [Compound 8, 4,4'-Dichloro-3'(trifluoromethyl) benzanilide] | – | 2.5 µg/mL (≈ 7.48 µM) | 0.625 µg/mL | – |
| CC(C)(C)c1ccc(C(=O)Nc2ccc(Cl)c(C(F)(F)F)c2)cc1 [Compound 22] | – | > 20 µg/mL | 2.5 µg/mL | – |
| O=C(Nc1ccc(Br)c(C(F)(F)F)c1)c1ccc(Br)cc1 [Compound 13, 4,4'-dibromo-α,α,α-trifluoro-m-benzotoluidide] | soluble or fairly soluble | 1.25 µg/mL (≈ 2.95 µM) | 0.312 µg/mL | – |

Second part, led by results:

| solubility in alcohol solvents [1] | MIC (Staphylococcus aureus) | Structure (SMILES) | Compound Activity With Soap: minimum concentration where S. aureus growth is completely inhibited (Staphylococcus aureus) | LD50 (in vivo) |
| --- | --- | --- | --- | --- |
| – | > 10 µg/mL | O=C(Nc1ccc(C(F)(F)F)cc1)c1ccc(Cl)cc1 [Compound C9] | B (Inactive at 10 mcg./ml. (highest concentration tested)) | – |
| – | > 10 µg/mL | O=C(Nc1ccc(Cl)cc1C(F)(F)F)c1ccc(Cl)cc1 [Compound C20] | B (Inactive at 10 mcg./ml. (highest concentration tested)) | – |
| – | > 10 µg/mL | O=C(Nc1cccc(C(F)(F)F)c1)c1ccccc1Br [Compound C2] | B (Inactive at 10 mcg./ml. (highest concentration tested)) | – |
| – | > 20 µg/mL | O=C(Nc1ccc(Cl)c(C(F)(F)F)c1)c1ccc(F)cc1 [Compound C13] | 5.0 µg/mL | – |
| – | > 20 µg/mL | O=C(Nc1ccc(Cl)c(Cl)c1)c1ccc(Cl)cc1 [Compound C31] | 10.0 µg/mL | – |
| – | > 10 µg/mL | O=C(Nc1cc(C(F)(F)F)cc(C(F)(F)F)c1)c1cccc(C(F)(F)F)c1 [Compound C28] | B (Inactive at 10 mcg./ml. (highest concentration tested)) | – |
| – | > 10 µg/mL | O=C(Nc1ccccc1C(F)(F)F)c1ccccc1Cl [Compound C8] | B (Inactive at 10 mcg./ml. (highest concentration tested)) | – |
